# Measured values as given in publication PMC5522084, “Eg5 inhibitor YL001 induces mitotic arrest and inhibits tumor proliferation” (Oncotarget, 2017).
# Where two headings read alike, the source gives them in different places.
# Experiments:
# [1] = target: T1, Eg5 motor domain (Homo sapiens, UniProt P52732); assay: SPR assay (Biacore T200); format: binding; conditions: SPR Biacore T200, 25°C
# T1 sequence (P52732 18-359 limits assumed): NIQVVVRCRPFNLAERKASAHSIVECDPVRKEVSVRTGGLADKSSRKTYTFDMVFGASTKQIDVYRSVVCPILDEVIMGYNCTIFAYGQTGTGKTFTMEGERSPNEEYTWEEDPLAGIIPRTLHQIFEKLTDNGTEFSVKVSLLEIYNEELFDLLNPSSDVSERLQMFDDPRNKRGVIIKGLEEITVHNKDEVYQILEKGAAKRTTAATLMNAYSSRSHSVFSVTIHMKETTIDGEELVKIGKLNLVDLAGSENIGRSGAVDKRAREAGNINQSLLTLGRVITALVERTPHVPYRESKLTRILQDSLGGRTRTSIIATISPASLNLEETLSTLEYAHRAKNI
# Procedure: Interactions of the Eg5 motor domain and compounds of interest were analyzed using the Biacore T200 system (GE Healthcare, Uppsala, Sweden) at 25°C. Eg5 motor protein obtained as previously described (51) was immobilized on a sensor chip (CM5) using an amine coupling kit (GE Healthcare, Buckinghamshire, UK). […] For binding studies, analytes were applied at corresponding concentrations in running buffer at a flow rate of 30 μL/minute with a contact time of 60 seconds and a dissociation time of 60 seconds. Chip platforms were washed with running buffer and 50% DMSO. Data were analyzed with Biacore evaluation software (T200 Version 1.0) by curve fitting using a steady state 1:1 binding model and a kinetic model.
# [2] = test system: K562; assay: Antiproliferation assay (Alamar Blue), K562; format: cell-based; conditions: Homo sapiens; K562, leukemia; read-out: EC50 of YL001
# Procedure: (§1) Cytotoxic activities of the compounds of interest were investigated with human cancer cell lines using the Alamar Blue assay. Cells (5 × 10^3 cells/well) were seeded into 96-well plates (Corning, 3603). Various sample concentrations (compounds of interest) were added to each well in duplicate, and incubated at 37°C with 5% CO2 for two days such that cells were in the exponential growth phase at the time of drug addition. Ten microliters of the Alamar Blue Solution (Invitrogen, Alamar Blue) were added to each well and incubated at 37°C for up to 2 hours in a humidified, 5% CO2 atmosphere. After incubation, florescence was measured using a microplate reader (Tecan) at an excitation wavelength of 540 nm and emission of 590 nm. Each inhibitory concentration was measured in triplicate, and averaged data points ± SD are shown. Statistical analysis was carried out with GraphPad Prism 5 and the fifty-percent effective concentration is expressed as EC50.
# [3] = test system: CNE-2Z; assay: Antiproliferation assay (Alamar Blue), CNE-2Z; format: cell-based; conditions: Homo sapiens, CNE2Z, nasopharyngeal cancer, read-out: EC50 of YL001
# Procedure: as §1
# [4] = test system: A549; assay: Antiproliferation assay (Alamar Blue), A549; format: cell-based; conditions: Homo sapiens; A549, lung cancer; read-out: EC50 of YL001
# Procedure: as §1
# [5] = test system: Huh7; assay: Antiproliferation assay (Alamar Blue), Huh7; format: cell-based; conditions: Homo sapiens, Huh-7; Huh7, liver cancer; read-out: EC50 of YL001
# Procedure: as §1
# [6] = test system: U87; assay: Antiproliferation assay (Alamar Blue), U87; format: cell-based; conditions: Homo sapiens, U-87 MG; U87, brain cancer; read-out: EC50 of YL001
# Procedure: as §1
# [7] = test system: DU145; assay: Antiproliferation assay (Alamar Blue), DU145; format: cell-based; conditions: Homo sapiens, DU-145; DU145, prostate cancer; read-out: EC50 of YL001
# Procedure: as §1
# [8] = test system: MCF-7; assay: Antiproliferation assay (Alamar Blue), MCF-7; format: cell-based; conditions: Homo sapiens, MCF7; MCF-7, breast cancer; read-out: EC50 of YL001
# Procedure: as §1
# [9] = test system: 786-O; assay: Antiproliferation assay (Alamar Blue), 786-O; format: cell-based; conditions: Homo sapiens, 786-0, renal cancer, read-out: EC50 of YL001
# Procedure: as §1
# [10] = test system: HT1080; assay: Antiproliferation assay (Alamar Blue), HT1080; format: cell-based, Human; conditions: read-out: EC50 of YL001
# Procedure: as §1
# [11] = test system: A2780/taxol; assay: Antiproliferation assay (Alamar Blue), A2780/taxol; format: cell-based; conditions: Homo sapiens, taxol resistant ovarian cancer, read-out: EC50 of YL001
# Procedure: as §1
# [12] = test system: 4T1/6TG; assay: Antiproliferation assay (Alamar Blue), 4T1/6TG; format: cell-based; conditions: 6TG resistant mouse breast cancer, read-out: EC50 of YL001
# [13] = test system: MCF10A; assay: Antiproliferation assay, normal breast cell line MCF10A; format: cell-based
# Procedure: as §1
# [14] = test system: HCT 116; assay: Cell cycle analysis by flow cytometry; format: cell-based, Human; conditions: HCT 116, 8 hours treatment with 50 μM
# [15] = test system: HeLa cells; assay: Colony formation; format: cell-based; conditions: Homo sapiens, exposed 24 hours, cultured 10 days
# Procedure: HeLa cells (5 × 10^2 cells/well) were seeded into 6-well plates and were treated with a series of gradient concentrations of YL001 for 24 hours, followed by washing and continual culture for 10 days. DMSO was used as a negative control, and STLC was used as a positive control. Cells were fixed with ethanol for more than 30 minutes and dyed with crystal violet for more than 30 minutes. Clones were counted with OpenCFU [54].
# [16] = test system: B16 melanoma xenograft; assay: B16 melanoma xenograft model; format: in vivo
# Procedure: B16 cells (1 × 10^6 cells) were inoculated s.c. into 6-week old C57BL/6 mice. Tumor volume was calculated as: V = 1/2× L (long axis)×W^2 (short axis). When the volume of tumor was between 50 to 100 mm^3, YL001 was administered i.p. daily on days 1 to 10 at 200 mg/kg. Doses and schedules were determined by tolerance studies. Mice were kept under specific pathogen-free conditions, and all animal experiments were approved by the Committee on Animal Research at our institute.
# Vehicle (10% (v%) N,N-Dimethylacetamide (DMAC) in 200 μL olive oil per 20 g mouse) was administered daily i.p. as a control on days 1 to 10. Drug efficiency was expressed as the ratio of the mean experimental V/V0 value to that of the control group [treated versus control (T/C) ratio], where V is the tumor volume on the day of evaluation and V0 is the tumor volume on the day of initial treatment with the drug. Drug efficiency was also evaluated by median survival. All statistical analysis was performed using Graphpad Prism 5.
# [17] = Dose range testing in healthy mice without tumor; format: in vivo; conditions: healthy B6 mice without tumor; taking into consideration the solubility
# [18] = test system: human and rodent cancer cell lines; assay: Antiproliferative activity over the panel of 15 cancer cell lines; format: cell-based; conditions: 15 cell lines tested, read-out: EC50 values predominantly in the range
# Procedure: as §1
structure (smiles),measurement,setting,value
"Cc1ccc(-n2nnnc2/C(=C/N(C)C)C(=O)c2cccc(C(F)(F)F)c2)cc1 [YL001, (Z)-3-(dimethylamino)-2-(1-(p-tolyl)-1H-tetrazol-5-yl)-1-(3-(trifluoromethyl)phenyl)prop-2-en-1-one]",Kd,[1],0.133 µM
same,EC50,[2],9.76 ± 0.52 µM
same,EC50,[3],5.94 ± 0.02 µM
same,EC50,[4],22.8 ± 0.72 µM
same,EC50,[5],14.6 ± 0.82 µM
same,EC50,[6],26.2 ± 0.12 µM
same,EC50,[7],26.5 ± 0.27 µM
same,EC50,[8],14.9 ± 2.57 µM
same,EC50,[9],14.7 ± 0.62 µM
same,EC50,"[10]; HT1080, fibrosarcoma",76.2 ± 0.77 µM
same,EC50,"[10]; Homo sapiens, HT-1080, HT1080, fibrosarcoma",> 70 µM
same,EC50,[11],20.1 ± 0.68 µM
same,EC50,[12],20 ± 0.5 µM
same,Therapeutic window,[13],> 6.7
same,EC50,"[13]; Homo sapiens, MCF-10A, MCF10A, breast normal cell, read-out: EC50 of YL001",> 100 µM
same,percentage of cells with 4N DNA content,[14],over 80%
same,IC50,[15],0.124 µM
same,adverse effects / toxicity,"[16]; 200 mg/kg i.p. daily for 10 days, body weight",no adverse effects were observed
same,minimum T/C ratio,"[16]; 200 mg/kg i.p. daily for 10 days, tumor volume",0.40
same,Medium survival time,"[16]; 200 mg/kg, B16 tumor-bearing mice",> 33 days
same,tumor growth inhibition,"[16]; xenograft mouse model, 200 mg/kg i.p. daily",60%
same,maximal therapeutic dose,[17],200 mg/kg
same,EC50,[18],5 to 20 µM
